# Experimental data: patent publication US8193237B2, “Indole derivative having IκB kinase β inhibitory activity” (Santen Pharmaceutical Co., Ltd., priority 2007, dated 2012)
# Biological target: T1, IKKβ (Homo sapiens, UniProt O14920)
# T1 construct: purchased Upstate Biotechnology Inc. 14-485
# T1 sequence (O14920 1-756): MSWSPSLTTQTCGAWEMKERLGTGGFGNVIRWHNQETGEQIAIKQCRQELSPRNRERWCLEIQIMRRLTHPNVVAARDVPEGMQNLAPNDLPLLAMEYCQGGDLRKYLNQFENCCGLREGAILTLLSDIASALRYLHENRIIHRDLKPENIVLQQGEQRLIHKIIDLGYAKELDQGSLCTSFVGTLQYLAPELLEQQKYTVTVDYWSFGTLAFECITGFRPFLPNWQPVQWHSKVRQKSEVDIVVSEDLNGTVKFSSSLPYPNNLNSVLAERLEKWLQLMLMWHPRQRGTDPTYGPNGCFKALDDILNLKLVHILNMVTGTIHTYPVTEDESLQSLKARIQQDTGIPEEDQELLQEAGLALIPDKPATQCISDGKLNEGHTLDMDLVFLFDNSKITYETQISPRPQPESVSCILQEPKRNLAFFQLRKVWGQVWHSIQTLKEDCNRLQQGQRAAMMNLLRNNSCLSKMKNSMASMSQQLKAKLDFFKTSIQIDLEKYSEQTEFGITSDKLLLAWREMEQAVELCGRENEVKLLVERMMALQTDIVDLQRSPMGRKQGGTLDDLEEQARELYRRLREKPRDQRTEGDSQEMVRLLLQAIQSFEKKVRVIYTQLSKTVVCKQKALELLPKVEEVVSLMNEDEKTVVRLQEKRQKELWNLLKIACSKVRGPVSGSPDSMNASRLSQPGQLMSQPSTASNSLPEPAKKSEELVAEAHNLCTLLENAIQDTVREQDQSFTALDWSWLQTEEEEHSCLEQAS
# Experiment: IKKβ inhibition assay by fluorescence polarization (IMAP kit)
# Type: biochemical
# Conditions: test compound at 1 μM; inhibition rate exceeding 100% is indicated as 100%
# Protocol: In order to evaluate IKKβ inhibitory activity of the present compounds, an IKKβ inhibition assay by the fluorescence polarization method was conducted.
# The assay was conducted using IMAP™ IKKβ assay kit (manufactured by Molecular Devices Corporation, catalogue No. R8115) or IMAP™ FP Screening Express kit (manufactured by Molecular Devices Corporation, catalogue No. R8127) and in accordance with the protocol attached to each kit. The specific methods are described below. (Preparation of Reagents)
# 1) Complete Reaction Buffer: a complete reaction buffer was so prepared as to obtain a final concentration of 10 mM Tris-HCL (pH 7.2), 10 mM magnesium chloride, 0.1% bovine serum albumin, and 1 mM dithiothreitol.
# 2) Substrate Working Solution: 400 nM of a substrate working solution was prepared by dissolving and diluting a fluorescein-labeled IKKβ substrate peptide (amino acid sequence: GRHDSGLDSMK) with the complete reaction buffer.
# 3) Enzyme Working Solution: 0.2 units/mL of an enzyme working solution was prepared by diluting IKKβ solution (manufactured by Upstate Biotechnology Inc., catalogue No. 14-485) with the complete reaction buffer.
# 4) ATP Working Solution: 8 μM of an ATP working solution was prepared by dissolving ATP into ultrapure water followed by diluting it with the complete reaction buffer.
# 5) IMAP binding solution: After diluting an IMAP binding buffer with ultrapure water, an IMAP binding solution was prepared by diluting an IMAP binding reagent with the diluted IMAP binding buffer.
# A test compound was dissolved in dimethylsulfoxide followed by diluting it with the complete reaction buffer to prepare 4 μM of a test compound solution.
# 1) To a 384-well plate, the test compound solution, the enzyme working solution, the substrate working solution, and the ATP working solution were added in an amount of 5 μL per well.
# 2) Incubation was performed at a room temperature for 60 minutes under light shielding.
# 3) The IMAP binding solution was added in an amount of 60 μL per well.
# 4) Incubation was performed at a room temperature for 30 minutes under light shielding.
# 5) Fluorescence polarization value of each well was measured by using Analyst™ HT (multimode plate reader manufactured by Molecular Devices Corporation) and Criterion Host Software v2.00 (manufactured by Molecular Devices Corporation).
# 6) Operations were performed in the same manner as in 1) to 5) except for changing the test compound to 0.4% dimethylsulfoxide. The obtained result was designated as a control.
# 7) Operations were performed in the same manner as in 1) to 5) except for changing the test compound and the enzyme working solution to 0.4% dimethylsulfoxide and the complete reaction buffer, respectively. The obtained result was designated as a background.
# An IKKβ inhibition rate (%) was calculated by the following equation.
# IKKβ inhibition rate (%)=100×{1−(fluorescence polarization value of test compound−fluorescence polarization value of background)/(fluorescence polarization value of control−fluorescence polarization value of background)}
row,inhibition at 1 µM,SMILES
1,100%,"NC(=O)Nc1[nH]c2cc(-c3ccc(CNC4CC4)o3)ccc2c1C(N)=O [Compound 13-15, 2-Aminocarbonylamino-6-(5-cyclopropylaminomethylfuran-2-yl)indole-3-carboxamide]"
2,98%,"CNCc1ccc(-c2ccc3c(C(N)=O)c(NC(N)=O)[nH]c3c2)s1 [Compound 13-24, 2-Aminocarbonylamino-6-(5-methylaminomethylthiophen-2-yl)indole-3-carboxamide]"
3,78%,"NC(=O)Nc1[nH]c2cc(CO)ccc2c1C(N)=O [Compound 16-1, 2-Aminocarbonylamino-6-hydroxymethylindole-3-carboxamide]"
4,100%,"NC(=O)Nc1[nH]c2cc(C3SCCS3)ccc2c1C(N)=O [Compound 20-1, 2-Aminocarbonylamino-6-(1,3-dithiolan-2-yl)indole-3-carboxamide]"
5,70%,NC(=O)Nc1[nH]c2cc(C(=O)N3CCCC3)ccc2c1C(N)=O [Compound 22-2]
6,100%,NC(=O)Nc1[nH]c2cc(C(=O)NCc3ccccc3)ccc2c1C(N)=O [Compound 22-9]
7,100%,NC(=O)Nc1[nH]c2cc(CN3CCCC3)ccc2c1C(N)=O [Compound 24-2]
8,100%,CCSCc1ccc2c(C(N)=O)c(NC(N)=O)[nH]c2c1 [Compound 25-3]
